The values that follow come from patent US8150136B2, “Image based quantitation of molecular translocation” (Amnis Corporation, priority 2005, dated 2012).

In the experiment the test system is NF-κB nuclear translocation in THP-1 cells. The experiment is described as follows: LPS-induced nuclear translocation of NF-κB in THP-1 cells, multispectral imaging flow cytometry (ImageStream), NF-κB/7-AAD Similarity. The format is cell-based, human. The protocol:
Untreated (a) and LPS treated (b) THP-1 cells were prepared as described in FIG. 4 and imaged in flow using the ImageStream 100 platform. […] Each gated population has an associated image gallery that can be visually inspected. The image galleries here display the NF-κB image adjacent to a composite image (green NF-κB/red 7-ADD) for each object within a given population.
In order to quantitate the extent of NF-κB nuclear translocation in A-549 cells treated with TNF-α/IL-β, the degree of pixel intensity between the NF-κB and nuclear images of cell within a masked region of interest was analyzed. The NF-κB image of a cell with a high degree of translocation will look qualitatively similar to the nuclear image of that cell, resulting in a high degree of correlation between the two images. In contrast, the NF-κB image of a cell without any translocation will have little signal in the nuclear space, resulting in an inverse correlation with the nuclear image. […] Two features were calculated, the correlation coefficient (ρ) and, in this case, similarity is calculated as a logarithmic transformation of ρ, which features are represented by the following formula, respectively: ρ(X,Y)=Cov(X,Y)/(σX σY) Similarity=ln(1+ρ)/(1−ρ) As set forth herein, ρ measures the degree to which the spatial distribution of intensities over two separate images is correlated, with a range from −1 (inverse correlation) to +1 (complete correlation). Here, similarity values range from −∞ to +∞, allowing standard statistical comparisons (means and standard deviations) between groups to be made. Histogram overlays of NF-κB/7-AAD correlation and similarity allows the differentiation of untreated (green) A-549 cells from TNF-α/IL-1β treated (red) A-549 cells. As described herein, the fidelity of these classifiers can be validated by inspection of the image galleries of the cells. Mask Determination
By way of background and […], NF-κB resides predominantly in the cytoplasm in resting cells. Activating treatments (e.g., IL-1β/TNF-α or LPS) induce NF-κB translocation into the nucleus in responsive cell types. Thus, the ratio of nuclear to cytoplasmic NF-κB increases with LPS treatment. Similar to the A-549 cells, NF-κB is translocated from the cytoplasm to the nucleus when the non-adherent human monocyte cell line, THP-1, is exposed to lipopolysaccharide (LPS). […] A nuclear and NF-κB pixel signal correlation analysis CCF was used to quantitate the difference between untranslocated NF-κB and NF-κB translocated to the cell nucleus. The CCF distinguished location-specific (nuclear and cytoplasmic) quantitation of NF-κB to distinguish LPS-treated from untreated THP-1 cells. Thus, the methods of the present disclosure may also be used with non-adherent cells and cell lines.
Human monocyte cell line THP-1, obtained from ATCC (Rockville, Md.), were maintained in RPMI 1640 (Gibco, Grand Island, N.Y.) containing 5% fetal bovine serum, 1 mM sodium pyruvate (Mediatech, Herndon, Va.), 100 μM nonessential amino acids, 100 U/ml penicillin, 100 μg/ml streptomycin, and 2 mM L-glutamine (BioWhittaker, Walkersville, Md.) in 5% CO2 atmosphere at 37° C. The density of exponentially growing cells was less than 3×10^5 cells per ml at the time of all treatments. To induce NF-κB translocation into the nucleus from the cytoplasm, cells were treated for 1 hr with LPS.
The following is the experimental procedure for LPS-induced Nuclear Translocation of NF-κB in THP-1 cells. […]
Background: In flow cytometry, cells or beads pass a laser one at a time.

Lipopolysaccharide [LPS]: the “NF-κB/7-AAD Similarity value (median similarity value) of translocated cells” value (LPS treated THP-1 cells, 'High Similarity' (translocated) gated population, untreated: 2.98 +/−0.35) is reported as 3.35 +/−0.48. In addition, where the note is “LPS treated THP-1 cells, 'Low Similarity' (untranslocated) gated population, untreated: −1.36 +/−0.84”, the “NF-κB/7-AAD Similarity value of untranslocated cells” value is listed as −0.76 +/−0.64. In addition, for the setting “LPS treated THP-1 cells, diffuse NF-κB staining pattern, untreated 3.6%”, the “percentage of Medium Similarity cells” value came to 27.6%. Further, the “percentage of NF-κB-translocated cells” value (LPS treated THP-1 cells, untreated 0.71%) is 44.6%. For the same substance, the “nuclear localization of NF-κB by CCF, treated versus untreated cells” value (THP-1 cells, LPS-treated vs untreated) is reported as “a quantifiable difference in the nuclear localization NF-κB is demonstrated”.
